The source of these data is PubChem BioAssay AID1508591.

For this series the following is noted: rat; liver microsomes; pH 7.4; 15.0 min; 1.0 µM. For orientation: Microsomes from liver hold many membrane-bound enzymes, among them those of drug oxidation.

The compound `c1ccc(Nc2cc3c(cn2)CN(Cc2c[nH]c4ccccc24)CCN3)cc1` came in with a half-life of 7.47 min. For `CCOC(=O)c1ccc(-n2c(C)cc(-c3nnc4n3CCCCC4)c2C)cc1` the value was 2.7 min; for `CCNC(=O)N1CCCN(c2ccc(C(=O)NCCc3ccc(Cl)cc3Cl)cc2NC(=O)c2cccc(Cl)c2)CC1`, 0.9 min.

In the case of `N=c1c2c(ncn1-c1ccccc1)Oc1ccc3ccccc3c1C2c1ccc2c(c1)CCO2` (stereo unspecified), the half-life is 10.1 min. For `COc1c(Cl)cc2c([nH]c3cnccc32)c1NC(=O)c1cccnc1C` the value was over 30 min. In the case of `CCN(CC)CCOc1ccc(Cc2ccccc2)cc1`, the half-life amounted to 1.73 min. `CC(C)c1ccc2oc3nc(N)c(C(=O)O)cc3c(=O)c2c1` returned a half-life of over 30 min.

For `Cc1ccc(C(=O)Nc2nc(-c3ccccn3)cs2)cc1S(=O)(=O)N1CCOCC1`, the half-life was found to be 4.16 min. Take `Nc1cc(CN2C(=O)c3ccccc3C2=O)cc(Cl)c1O`: the half-life came out at 11.7 min. In the case of `CC(Nc1ncnc2c1cnn2-c1cccc(Cl)c1)c1ccccc1` (stereo unspecified) it was 23 min.

The compound `O=C(Nc1ccccc1)C1CCN(c2nc(-c3ccc(Br)cc3)cs2)CC1` had a half-life of 1.53 min. In turn, `CN1CCN(c2ccc(Nc3nc(-c4ccncc4)nc4ccccc34)cc2F)CC1` came in with a half-life of 8.8 min. In the case of `O=C(Nc1ccccc1)C1CCN(c2ncc(-c3ccc4c(c3)OCCCO4)s2)CC1` it was 1.44 min; in that of `Cc1ccc(S(=O)(=O)Nc2ccccc2Nc2nc(-c3ccccc3)cs2)cc1`, 1.7 min. In the case of `CC(C)(C)c1ccc(-n2cnc3cc(C(=O)N4CCCCC4)ccc32)cc1` it was 2.7 min; in that of `O=S(=O)(Nc1nccs1)c1ccc(NCc2ccc(Cl)cc2O)cc1`, 7.5 min; in that of `CC(C)Oc1ccc(C(=O)Nc2ccc3c(c2)CCCN3C(=O)c2cccs2)cc1`, 4.8 min. Take `O=C1Nc2ccccc2/C1=C/c1ccc[nH]1`: the half-life came to 5.1 min. `COc1c(C)cc(NC(=O)c2nn(Cc3ccc(F)cc3)c3c2CN(C(=O)c2ccc[nH]2)C[C@]3(C)C(N)=O)cc1C` gave a half-life of over 30 min. For `CCOc1ccc(CCNC(=O)c2cc3ccccc3n2CCN2CCOCC2)cc1OCC` the value was 1.6 min; for `CN(C)c1ccc(-c2cc[nH]c(=O)c2N)cc1`, over 30 min; for `Cc1ccc2oc3c(c(=O)c2c1)C(c1cccc(O)c1)N(CCCN1CCOCC1)C3=O` (stereo unspecified), 9.55 min. `CCNC(=O)c1noc(-c2cc(C(C)C)c(O)cc2O)c1-c1ccc(CN2CCOCC2)cc1` had a half-life of 4.7 min. In the case of `CC[C@H]1CN2CCC3CC(OC)C(OC)CC3[C@@H]2C[C@@H]1C[C@H]1NCCC2=C1CC(OC)=C(O)C2` (stereo partly specified) it was over 30 min. For `O=C(CCS(=O)(=O)c1nc(-c2cccs2)cc(C(F)(F)F)n1)Nc1ccc(OC(F)(F)F)cc1` the value was 2.45 min. Take `Fc1ccc(Nc2nc(Nc3ccncc3)nc3ccccc23)cc1F`: the half-life is over 30 min. For `COc1cccc(CNc2ccc(S(=O)(=O)Nc3nc4ccccc4s3)cc2)c1O` the value was over 30 min. In the case of `Cc1cc(NS(=O)(=O)c2ccc(NC(=O)Cc3ccc(Cl)c(F)c3)cc2)no1` it was over 30 min. `COc1ccc(-n2nc(C3CCCN(C(=O)c4ccccc4)C3)[nH]c2=O)cc1` (stereo unspecified) had a half-life of over 30 min. For `CN(C)c1cccc(-c2c3c(=O)n(-c4ccccc4Cl)[nH]c3cc(=O)n2C)c1` the value was over 30 min; for `CC(=O)NCCNC[C@@H]1C=C(C)[C@H](Cc2nnc(-c3ccccc3)o2)C[C@H]1C(C)C`, 5.06 min; for `Cc1ccc(S(=O)(=O)Nc2cnccc2C(=O)Nc2nc(-c3cccc(C)c3)cs2)cc1`, 5.8 min. `COC(=O)c1ccc2nc(NC3=NC(c4[nH]ncc4Cl)C4=C(CCCC4=O)N3)oc2c1` (stereo unspecified): the half-life is 5.9 min.

`CC(C)c1cc(C(=O)N2CC[C@@H](NC(=O)C3CC3)C2)n[nH]1` returned a half-life of over 30 min. In the case of `CCCN1C(CC(C)C)=NS(=O)(=O)c2cc(NC(=O)c3cccs3)ccc21` it was 4.56 min. In the case of `Cc1cc(N[S+](=O)([O-])c2ccc(NC(=O)Cc3ccc(F)c(F)c3)cc2)no1` it was over 30 min.

As for `Cc1cnc(N2CCC(C(N)=O)CC2)nc1-c1cccc(N(C)C)c1`, the half-life turned out to be 8.45 min. As for `COc1ccc(Cl)cc1NC(=O)c1sc2nc3c(cc2c1N)N1CCC3CC1`, the half-life was 26.4 min.

For `CC(C)(C)C1CCc2nc(NC(=O)c3cccc(Cl)c3)sc2C1` (stereo unspecified), the half-life came out at 20 min. Take `CC1=C(C(=O)Nc2nc3ccccc3s2)C(c2[nH]ncc2Cl)N=C(Nc2nc3ccccc3o2)N1` (stereo unspecified): the half-life is 10.4 min. For `Cc1nc(NC(=O)C2CC(=O)N(c3n[nH]c4cc(Br)ccc34)C2)sc1C` (stereo unspecified) the value was 18.5 min; for `N#Cc1cc(-c2nc(Nc3ccc(F)c(F)c3)c3ccccc3n2)ccn1`, over 30 min. In the case of `CCN1CCN(c2ccc(Nc3ccc(-c4ccc(C(N)=O)cc4)n4ncnc34)cc2)CC1` it was over 30 min; in that of `CC(C)n1cc(-c2ccc(Oc3ccccc3)cc2)c2c(N)ncnc21`, 18 min. For `CN(C)C(=O)c1cc2cnc(Nc3ccc(N4CCNCC4)cn3)nc2n1C1CCCC1` the value was over 30 min.

Consider `CC(=O)Nc1ccc(CN2CCc3nc(C(C)C)nc(-c4ccc(Cl)cc4)c3CC2)cc1`, for which the half-life is 4.1 min.

With `CCc1ccc(C2Sc3ccccc3NC3=C2C(=O)c2ccccc23)cc1` (stereo unspecified), the half-life came to 1.81 min. `CCCNC(=O)c1ccc2c(c1)ncn2-c1cc(C)cc(C)c1` showed a half-life of 17 min. With `Cc1nc([N+](=O)[O-])cn1-c1ccc([N+](=O)[O-])cc1`, the half-life is over 30 min. Regarding `O=C(O)CCNc1cc(N2CCc3ccccc3CC2)nc(-c2ccccn2)n1`, the half-life is over 30 min.

`Cc1ccc(-c2cc(C(=O)Nc3ccc(S(C)(=O)=O)cc3)c3ccccc3n2)cc1C` came in with a half-life of over 30 min. Compound `O=C(Nc1ncnc2sc3c(c12)CCCCC3)c1ccco1` returned a half-life of 2.3 min. In the case of `Cc1ccc(S(=O)(=O)Nc2cc(C(=O)Nc3nc(-c4ccccc4)cs3)ccc2Cl)cc1` it was 15 min; in that of `Cc1ccc(C(=O)Nc2ccc3oc(-c4cccnc4)nc3c2)cc1[N+](=O)[O-]`, 13.2 min; in that of `Cc1ccccc1C(C(=O)NC1CCCC1)N(C(=O)Cn1cnc2ccccc21)c1cccc(F)c1` (stereo unspecified), 1.67 min. For `O=C(Cc1ccc(Cl)c(Cl)c1)Nc1ccc([S+](=O)([O-])Nc2ccccn2)cc1` the value was 8.3 min; for `COc1cccc(NC(=O)c2cccc3c(=O)c4c([nH]c23)CCCC4)c1`, 16.3 min. For `c1ccc(CNc2nc(NCc3ccccc3)c3ccccc3n2)cc1` the value was 5.2 min. The compound `COc1cc(Nc2nc(-c3ccncc3)nc3ccccc23)ccc1Cl` gave a half-life of 12 min. In the case of `O=C(NC1CC1)c1nc(-c2cccnc2)c2ccccn12` it was 21.8 min; in that of `Nc1nc(N)c2c(OCC3CCN(Cc4ccccc4F)CC3)cccc2n1`, over 30 min; in that of `CS(=O)(=O)c1ccc2nc(NC(=O)C3CC3)sc2c1`, over 30 min. `Fc1ccc(Nc2nc(-c3ccccc3)nc3ccccc23)cc1F`: the half-life was over 30 min. In turn, `CCOc1ccc(-c2nnc(SCC(=O)NCc3ccccc3Cl)o2)cc1` came in with a half-life of 3.32 min. For `O=C(NC1CCN(c2cc(-c3ccc(Cl)cc3)[nH]n2)C1)c1ccccc1` (stereo unspecified) the value was over 30 min; for `Nc1nc2c(s1)C(c1cccc(F)c1F)CC(=O)N2` (stereo unspecified), over 30 min.

A word on the half-life: it is the time needed for the level to fall by half in the phase considered. A lower half-life goes with rapid decline.
